This is an account of results in ChEMBL document CHEMBL6120991, “Chromones Featuring a [6,6]-Spiroketal Moiety Produced by Coculture of the Endophytic Fungi Chaetomium virescens and Xylaria Grammica” (J Nat Prod, 2025).

Activity calls are given as the source filed them. The calls are words filed in the database; no cut-off is given here.

In series [1] the test system is SW620/AD300. In words: Reversal of multi-drug resistance in human SW620/AD300 cells assessed as decrease in frequency of cells in G0/G1 phase at 20 uM presence of 1 uM of paclitaxel incubated for 24 hrs by PI staining based flow cytometry analysis. It is filed as functional, cell-based. A general note: Flow cytometry measures light scatter and fluorescence of single cells or particles in a stream.

Series [2] has as its system SW620/AD300. Description: Cytotoxicity against multidrug resistant human SW620/AD300 cells assessed as inhibition of cell viability at 20 uM measured after 72 hrs in presence of paclitaxel by CCK-8 method relative to control. It is filed as functional. A general note: Tetrazolium assays rely on reduction of a dye to a coloured formazan, in cell work by metabolically active cells.

Series [3] has as its system SW620/AD300. Description: Reversal of multi-drug resistance in human SW620/AD300 cells assessed as decrease in colony number at 20 uM presence of 1 uM of paclitaxel incubated for 7 days by crystal violet staining based analysis. As to conditions: time 7.0 day. It is filed as functional, cell-based.
Series [4] deals with SW620/AD300. In words: Inhibition of colony formation in human SW620/AD300 cells assessed as decrease in colony number at 20 uM incubated for 7 days by crystal violet staining based analysis. To be noted: time 7.0 day. The format is functional, cell-based.
Series [5] concerns the target ATP-dependent translocase ABCB1 (Homo sapiens, UniProt P08183). In words: Induction of thermal stabilization of P-gp in multidrug resistant human SW620/AD300 cells at 20 uM incubated for 30 mins by CESTA analysis. The format is cell-based. As to conditions: sw620/ad300, 0.5 h.
Series [6] concerns SW620/AD300. Description: Reversal of multi-drug resistance in human SW620/AD300 cells assessed as decrease in colony number at 20 uM presence of 0.25 uM of paclitaxel incubated for 7 days by crystal violet staining based analysis. The format is functional, cell-based. To be noted: time 7.0 day.
Series [7] concerns SW620/AD300. Description: Reversal of multi-drug resistance in human SW620/AD300 cells assessed as increase in frequency of cells in G2/M phase at 20 uM presence of 1 uM of paclitaxel incubated for 24 hrs by PI staining based flow cytometry analysis. The format is functional, cell-based.
Series [8] concerns SW620/AD300. Description: Inhibition of colony formation in human SW620/AD300 cells assessed as decrease in colony number at 1 uM incubated for 7 days by crystal violet staining based analysis. The format is functional, cell-based. As to conditions: time 7.0 day.
Series [9] has as its system SW620/AD300. In words: Cytotoxicity against multidrug resistant human SW620/AD300 cells assessed as inhibition of cell viability at 1 uM measured after 72 hrs by CCK-8 method relative to control. The format is functional.

ATP-dependent translocase ABCB1, sequence (P08183 whole entry): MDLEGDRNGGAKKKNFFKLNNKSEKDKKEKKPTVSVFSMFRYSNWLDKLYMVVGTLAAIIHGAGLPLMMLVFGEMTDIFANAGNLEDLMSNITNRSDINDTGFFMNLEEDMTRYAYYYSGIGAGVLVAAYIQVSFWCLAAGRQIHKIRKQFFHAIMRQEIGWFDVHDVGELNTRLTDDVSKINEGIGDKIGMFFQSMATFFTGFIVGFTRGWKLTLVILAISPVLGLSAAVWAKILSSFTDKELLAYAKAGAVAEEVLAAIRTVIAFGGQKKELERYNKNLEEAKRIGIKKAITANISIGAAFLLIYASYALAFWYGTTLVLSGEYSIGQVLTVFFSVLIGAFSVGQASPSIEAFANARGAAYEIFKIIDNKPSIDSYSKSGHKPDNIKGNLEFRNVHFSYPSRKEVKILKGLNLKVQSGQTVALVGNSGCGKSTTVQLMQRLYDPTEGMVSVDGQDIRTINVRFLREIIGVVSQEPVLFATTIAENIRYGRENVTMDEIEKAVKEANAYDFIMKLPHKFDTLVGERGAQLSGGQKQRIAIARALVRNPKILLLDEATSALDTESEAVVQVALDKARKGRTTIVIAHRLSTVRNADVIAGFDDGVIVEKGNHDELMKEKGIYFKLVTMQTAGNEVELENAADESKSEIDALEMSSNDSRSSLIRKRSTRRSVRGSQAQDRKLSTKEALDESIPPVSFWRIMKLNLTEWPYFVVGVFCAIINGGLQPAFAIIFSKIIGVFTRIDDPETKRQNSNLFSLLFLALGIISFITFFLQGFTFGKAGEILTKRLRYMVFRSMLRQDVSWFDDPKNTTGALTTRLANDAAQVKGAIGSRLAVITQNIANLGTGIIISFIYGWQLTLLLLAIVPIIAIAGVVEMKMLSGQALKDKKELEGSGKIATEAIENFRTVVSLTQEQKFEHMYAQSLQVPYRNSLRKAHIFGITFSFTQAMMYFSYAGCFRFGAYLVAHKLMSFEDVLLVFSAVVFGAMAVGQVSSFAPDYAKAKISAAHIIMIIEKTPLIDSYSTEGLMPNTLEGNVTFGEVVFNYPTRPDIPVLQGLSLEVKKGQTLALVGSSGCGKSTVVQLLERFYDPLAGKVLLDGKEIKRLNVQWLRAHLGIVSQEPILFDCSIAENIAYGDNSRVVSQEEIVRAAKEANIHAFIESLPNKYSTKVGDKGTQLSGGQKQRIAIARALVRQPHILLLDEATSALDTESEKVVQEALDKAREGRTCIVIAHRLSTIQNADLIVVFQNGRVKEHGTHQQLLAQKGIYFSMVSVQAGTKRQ

Regarding `COc1cc2oc(C)cc(=O)c2c2c1C[C@@H](C)[C@@]1(C[C@H](OC)C[C@H](C)O1)O2`, the result with SW620/AD300 [1], with SW620/AD300 [3], in the series with SW620/AD300 [6] and in the series with SW620/AD300 [7] was Active. Further, the inhibition (commonly how much of the control response was suppressed) at 20 µM with SW620/AD300 [2] stood at 77.8%. The inhibition result with SW620/AD300 [4] was “inactive”. Besides, in [5], the result was Active.

Take `COc1cc2oc(C)cc(=O)c2c2c1C[C@@H](C)[C@@]1(O2)O[C@@H](C)C[C@H](O)[C@@H]1O`: in the series on SW620/AD300 [2], the inhibition at 20 µM amounted to 19.6%.

In the case of `COc1cc2oc(C)cc(=O)c2c2c1CC(C)C1(O2)OC(C)CC(O)C1O` (stereo not given), the inhibition at 20 µM in the series on SW620/AD300 [2] worked out at 11.1%.

In the case of `COc1cc2oc(C)cc(=O)c2c2c1C[C@@H](C)[C@@]1(C[C@H](O)C[C@H](C)O1)O2`, in the series on SW620/AD300 [2], the inhibition at 20 µM was 0.2%.

For `COc1cc2oc(C)cc(=O)c2c2c1C[C@@H](C)[C@@]1(C[C@@H](O)C[C@H](C)O1)O2`, the inhibition at 20 µM in the series on SW620/AD300 [2] was 10%.

In the case of `CC(=O)O[C@H]1C(=O)[C@@]2(C)[C@H]([C@H](OC(=O)c3ccccc3)[C@]3(O)C[C@H](OC(=O)[C@H](O)[C@@H](NC(=O)c4ccccc4)c4ccccc4)C(C)=C1C3(C)C)[C@]1(OC(C)=O)CO[C@@H]1C[C@@H]2O` [PACLITAXEL], the inhibition result with SW620/AD300 [8] is “inactive”. In addition, in the series on SW620/AD300 [9], the inhibition at 1 µM came out at 1.1%.

As to `COc1cc2oc(CO)cc(=O)c2c2c1C[C@@H](C)[C@@]1(O2)O[C@@H](C)C[C@H](O)[C@@H]1O`, the inhibition at 20 µM with SW620/AD300 [2] was 11.2%.

For `COc1cc2oc(C)cc(=O)c2c2c1C[C@H](C)[C@@]1(O2)O[C@@H](C)CCC1=O`, in the series with SW620/AD300 [2], the inhibition at 20 µM turned out to be 24.5%.

For the compound `COc1cc2oc(C)cc(=O)c2c2c1CC[C@@]1(O2)O[C@@H](C)C[C@H](O)[C@@H]1O`, the inhibition at 20 µM with SW620/AD300 [2] was 3.1%.

Regarding `COc1cc2oc(C)cc(=O)c2c2c1C[C@H](C)[C@@]1(C[C@H](OC)C[C@H](C)O1)O2`, the inhibition at 20 µM with SW620/AD300 [2] worked out at 29.2%.

For `COc1cc2oc(C)cc(=O)c2c2c1C[C@H](C)[C@@]1(O2)O[C@@H](C)C[C@H](O)[C@@H]1O`, the inhibition at 20 µM in the series with SW620/AD300 [2] was found to be 22%.

For `COc1cc2oc(CO)cc(=O)c2c2c1C[C@H](C)[C@@]1(O2)O[C@@H](C)C[C@H](O)[C@@H]1O`, the inhibition at 20 µM with SW620/AD300 [2] turned out to be 15.3%.

With `COc1cc2oc(CO)cc(=O)c2c2c1C[C@@H](C)[C@@]1(C[C@@H](NCC/C(C)=C/C(=O)O)C[C@H](C)O1)O2`, in the series with SW620/AD300 [2], the inhibition at 20 µM worked out at 46.4%.
